pIC50: −log10 of the molar value. Read-outs that look alike come from different tables or passages of the source.
How the values were obtained:
[1] = Metabolic stability in human liver microsomes; format: in vitro ADME; settings: for CLint scaled at 1 µM / half-life at 1 µM / microsomal CLint at 1 µM: human; for CLint scaled at 1 µM / half-life at 1 µM: pH 7.4; for microsomal CLint at 1 µM: pH 7.4, read-out: CLint(mic)
Outline: (§1)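 Compounds incubated at 37 °C with mouse, rat or human liver microsomes in 100 mM phosphate buffer pH 7.4, started with NADPH/MgCl2 and sampled at 0–60 min. Parent remaining quantified by LC-MS. T1/2 and CLint(mic) derived from depletion, scaled to CLint using 45 mg protein/g liver and species liver/body weight ratios.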

Caco-2 cells = assay: Permeability and efflux transporter substrate evaluation in Caco-2 cells; format: in vitro ADME; parameters: Papp A→B at 120 min / Papp B→A at 120 min / efflux ratio at 120 min / Papp at 120 min: dose or concentration left out as unconfirmed; settings: Caco-2
Outline: (§2)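 Bidirectional (A-B, B-A) transport across 21-28-day Caco-2 monolayers in HBSS/10 mM HEPES pH 7.40, test substance at […], 7200 s incubation. LC-MS/MS quantitation; Papp, efflux ratio and recovery calculated, monolayer integrity checked by Lucifer Yellow rejection.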

[2] = as above; format: in vitro ADME; parameters: Papp A→B at 120 min / Papp B→A at 120 min / efflux ratio at 120 min / Papp at 120 min: dose or concentration left out as unconfirmed; settings: human; for efflux ratio at 120 min / Papp at 120 min: Caco-2, pH 7.4; for Papp at 120 min: read-out: Classification Permeability; for Papp A→B at 120 min / Papp B→A at 120 min: pH 7.4, pH 7.40; for Papp A→B at 120 min: Caco-2, apical to basolateral; for Papp B→A at 120 min: Caco-2, basolateral to apical
Outline: as §2

HCT116 cells = assay: Inhibitory activity on HCT116 cell proliferation (ATPlite); format: cell-based; settings: Homo sapiens, HCT-116, HCT116 cells, 72 h
Method: Cell culture medium: RPMI1640+10% FBS (GBICO)
Cell culture plate: 96-well plate (Shanghai Jingan Biotechnology Co., Ltd.)
Detection kit: ATPlite 1step Luminescence (PerkinElmer)
Detection instrument: BioTek multifunctional microplate reader
2. Test method: HCT116 cells in the logarithmic growth phase were seeded into a white-wall clear-bottom 96-well plate at a density of 720 cells per well, and cultured overnight in a 37° C., 5% CO2 incubator. […] After adding the drug, culturing was continued for 72 h in a 37° C., 5% CO2 incubator.
GraphPad Prism 7.0 was used to process the data, the cell inhibition rate curve was obtained and IC50 was calculated.

[3] = Metabolic stability in rat liver microsomes; format: in vitro ADME; settings: for CLint scaled at 1 µM / half-life at 1 µM / microsomal CLint at 1 µM: rat; for CLint scaled at 1 µM / half-life at 1 µM: pH 7.4; for microsomal CLint at 1 µM: pH 7.4, read-out: CLint(mic)
Outline: as §1

[4] = read-out: half inhibitory concentration

SMILES: CN1CCN(c2ccc(OC(F)(F)F)c(Nc3ncc4c(n3)-c3c(c(C(N)=O)cn3CCO)CC4)c2)CC1 [Compound 2]
- 60 min remaining amount [1]: 49.9%
- Clearance rate [1]: Medium
- CLint scaled at 1 µM [1]: 22.7 mL/min/kg
- half-life at 1 µM [1]: 55 min
- microsomal CLint at 1 µM [1]: 25.2 µL/min/mg
- Classification Efflux transporter substrate (Caco-2 cells): Likely (ERa ≥ 2.00)
- efflux ratio at 120 min [2]: > 54.4
- Papp at 120 min [2]: < 0.5 ×10⁻⁶ cm/s
- Papp A→B at 120 min [2]: < 0.48 ×10⁻⁶ cm/s
- Papp B→A at 120 min [2]: 26.1 ×10⁻⁶ cm/s
- pIC50 (HCT116 cells; read-out: IC50): 7.57
- pIC50 (HCT116 cells; [4]): 7.57
- 60 min remaining amount [3]: 17.0%
- Clearance rate [3]: Medium
- CLint scaled at 1 µM [3]: 103 mL/min/kg
- half-life at 1 µM [3]: 24.3 min
- microsomal CLint at 1 µM [3]: 57 µL/min/mg

SMILES: CN1CCN(c2ccc(OC(F)(F)F)c(Nc3ncc4c(n3)-c3c(c(C(N)=O)nn3CCC#N)CC4)c2)CC1 [Compound 4]
- 60 min remaining amount [1]: 23.7%
- Clearance rate [1]: Medium
- CLint scaled at 1 µM [1]: 44.1 mL/min/kg
- half-life at 1 µM [1]: 28.3 min
- microsomal CLint at 1 µM [1]: 49 µL/min/mg
- Classification Efflux transporter substrate (Caco-2 cells): Likely (ERa ≥ 2.00)
- efflux ratio at 120 min [2]: 22.1
- Papp at 120 min [2]: 0.5 to 2.5 ×10⁻⁶ cm/s
- Papp A→B at 120 min [2]: 1.16 ×10⁻⁶ cm/s
- Papp B→A at 120 min [2]: 25.5 ×10⁻⁶ cm/s
- pIC50 (HCT116 cells; read-out: IC50): 6.48
- 60 min remaining amount [3]: 2.76%
- Clearance rate [3]: High
- CLint scaled at 1 µM [3]: 211 mL/min/kg
- half-life at 1 µM [3]: 11.8 min
- microsomal CLint at 1 µM [3]: 117 µL/min/mg

SMILES: CN1CCN(c2ccc(OC(F)(F)F)c(Nc3ncc4c(n3)-c3c(c(C(=O)NN)nn3CCO)CC4)c2)CC1 [Compound 13]
- 60 min remaining amount [1]: 58.5%
- Clearance rate [1]: Medium
- CLint scaled at 1 µM [1]: 17.5 mL/min/kg
- half-life at 1 µM [1]: 71.4 min
- microsomal CLint at 1 µM [1]: 19.4 µL/min/mg
- Classification Efflux transporter substrate (Caco-2 cells): Likely (ERa ≥ 2.00)
- efflux ratio at 120 min [2]: > 28.6
- Papp at 120 min [2]: < 0.5 ×10⁻⁶ cm/s
- Papp A→B at 120 min [2]: < 0.48 ×10⁻⁶ cm/s
- Papp B→A at 120 min [2]: 13.7 ×10⁻⁶ cm/s
- pIC50 (HCT116 cells; read-out: IC50): 6.08
- 60 min remaining amount [3]: 27.8%
- Clearance rate [3]: Medium
- CLint scaled at 1 µM [3]: 74.5 mL/min/kg
- half-life at 1 µM [3]: 33.5 min
- microsomal CLint at 1 µM [3]: 41.4 µL/min/mg

SMILES: Cn1nc(C(N)=O)c2ccc3cnc(Nc4cc(N5CCN(CCO)CC5)ccc4OC(F)(F)F)nc3c21 [Compound 16]
- 60 min remaining amount [1]: 23.3%
- Clearance rate [1]: Medium
- CLint scaled at 1 µM [1]: 44.1 mL/min/kg
- half-life at 1 µM [1]: 28.3 min
- microsomal CLint at 1 µM [1]: 49 µL/min/mg
- Classification Efflux transporter substrate (Caco-2 cells): Likely (ERa ≥ 2.00)
- efflux ratio at 120 min [2]: 7.27
- Papp at 120 min [2]: 0.5 to 2.5 ×10⁻⁶ cm/s
- Papp A→B at 120 min [2]: 0.917 ×10⁻⁶ cm/s
- Papp B→A at 120 min [2]: 6.66 ×10⁻⁶ cm/s
- pIC50 (HCT116 cells; read-out: IC50): 6.30
- 60 min remaining amount [3]: 21.6%
- Clearance rate [3]: Medium
- CLint scaled at 1 µM [3]: 90 mL/min/kg
- half-life at 1 µM [3]: 27.7 min
- microsomal CLint at 1 µM [3]: 50.5 µL/min/mg

SMILES: Cn1nc(C(N)=O)c2c1-c1nc(Nc3cc(N4CCN(CCO)CC4)ccc3OC(F)(F)F)ncc1CC2 [Compound 20]
- 60 min remaining amount [1]: 26.5%
- Clearance rate [1]: Medium
- CLint scaled at 1 µM [1]: 39.1 mL/min/kg
- half-life at 1 µM [1]: 31.9 min
- microsomal CLint at 1 µM [1]: 43.4 µL/min/mg
- Classification Efflux transporter substrate (Caco-2 cells): Likely (ERa ≥ 2.00)
- efflux ratio at 120 min [2]: 10.4
- Papp at 120 min [2]: 0.5 to 2.5 ×10⁻⁶ cm/s
- Papp A→B at 120 min [2]: 1.3 ×10⁻⁶ cm/s
- Papp B→A at 120 min [2]: 13.4 ×10⁻⁶ cm/s
- pIC50 (HCT116 cells; read-out: IC50): 6.84
- 60 min remaining amount [3]: 21.6%
- Clearance rate [3]: Medium
- CLint scaled at 1 µM [3]: 95.4 mL/min/kg
- half-life at 1 µM [3]: 26.2 min
- microsomal CLint at 1 µM [3]: 53 µL/min/mg

SMILES: CN1CCN(c2ccc(OCC(F)(F)F)c(Nc3ncc4c(n3)-c3c(c(C(N)=O)nn3CCO)CC4)c2)CC1 [Compound 24]
- 60 min remaining amount [1]: 40.1%
- Clearance rate [1]: Medium
- CLint scaled at 1 µM [1]: 28.6 mL/min/kg
- half-life at 1 µM [1]: 43.6 min
- microsomal CLint at 1 µM [1]: 31.8 µL/min/mg
- Classification Efflux transporter substrate (Caco-2 cells): Likely (ERa ≥ 2.00)
- efflux ratio at 120 min [2]: 279
- Papp at 120 min [2]: < 0.5 ×10⁻⁶ cm/s
- Papp A→B at 120 min [2]: 0.106 ×10⁻⁶ cm/s
- Papp B→A at 120 min [2]: 29.5 ×10⁻⁶ cm/s
- pIC50 (HCT116 cells; read-out: IC50): 7.49
- pIC50 (HCT116 cells; [4]): 7.49
- 60 min remaining amount [3]: 47.9%
- Clearance rate [3]: Medium
- CLint scaled at 1 µM [3]: 46.4 mL/min/kg
- half-life at 1 µM [3]: 53.7 min
- microsomal CLint at 1 µM [3]: 25.8 µL/min/mg

SMILES: CN1CCN(c2ccc(OC(F)(F)F)c(Nc3ncc4c(n3)-c3c(c(C(N)=O)nn3CCO)CC4)c2)CC1 [Onvansertib, reference compound]
- 60 min remaining amount [1]: 64.8%
- Clearance rate [1]: Medium
- CLint scaled at 1 µM [1]: 15.3 mL/min/kg
- half-life at 1 µM [1]: 81.5 min
- microsomal CLint at 1 µM [1]: 17 µL/min/mg
- Classification Efflux transporter substrate (Caco-2 cells): Likely (ERa ≥ 2.00)
- Papp at 120 min [2]: < 0.5 ×10⁻⁶ cm/s
- Papp A→B at 120 min [2]: 0.299 ×10⁻⁶ cm/s
- Papp B→A at 120 min [2]: 43.6 ×10⁻⁶ cm/s
- pIC50 (HCT116 cells; read-out: IC50): 7.38
- 60 min remaining amount [3]: 15.7%
- Clearance rate [3]: Medium
- CLint scaled at 1 µM [3]: 110 mL/min/kg
- half-life at 1 µM [3]: 22.7 min
- microsomal CLint at 1 µM [3]: 61 µL/min/mg

Reference: patent US20260176249A1, “PROTEIN KINASE INHIBITOR, PREPARATION METHOD THEREFOR, AND APPLICATION THEREOF” (SHANDONG LUYE PHARMACEUTICAL CO., LTD., priority 2021, published 2026)
